Results on 13 molecules are retold here after ChEMBL document CHEMBL1201862, “PubChem BioAssay data set” (2004).

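Values below derive from 48-hour exposures of cells grown in 96-well plates, with endpoints linearly interpolated between the two concentrations bracketing the appropriate inhibition level. At the GI50, growth is halved.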 Activity calls are given as the source filed them. Rule as the data show it: active = GI50 up to about 1.1 µM and inactive = higher.

Test systems include SW-620; BT-549; OVCAR-4; MDA-MB-231; Hs-578T; SN12C; NCI/ADR-RES; UACC-257; NCI-H23; EKVX; MDA-MB-435; HCT-116; RPMI-8226; MCF7; RXF 393; MDA-N; SR.
Holding throughout (experiment): NCI-60 cell line screen, 48 h

Regarding `FC(F)(F)c1ccc(Cc2nc3cc4ccccc4cc3[nH]2)cc1`, the GI50 with SW-620 is > 100 µM (inactive); in the assay on BT-549, > 100 µM (inactive); in the assay on OVCAR-4, 31.5 µM (inactive); in the assay with MDA-MB-231, > 100 µM (inactive); in the assay on Hs-578T, 95.7 µM (inactive); in the assay on SN12C, > 100 µM (inactive). Also, the GI50 with NCI/ADR-RES, with UACC-257, in the assay with NCI-H23, in the assay with EKVX, with MDA-MB-435 and in the assay on HCT-116 was > 100 µM (inactive) in each case. Besides, the GI50 in the assay on RPMI-8226 was 6.97 µM (inactive); with MCF7, 92.3 µM (inactive); in the assay on RXF 393 it was 51.6 µM (inactive).

Consider `O=[N+]([O-])c1ccccc1S(=O)(=O)c1cc(O)cc2c1NCCC2`, for which the GI50 is 8.41 µM (inactive) in the assay on SW-620; 13.2 µM (inactive) with BT-549; 15.3 µM (inactive) with OVCAR-4; 18.2 µM (inactive) in the assay with MDA-MB-231; 27.4 µM (inactive) in the assay on Hs-578T; 21.1 µM (inactive) with SN12C. Besides, the GI50 with MDA-N is 17.8 µM (inactive); in the assay with NCI/ADR-RES, 21.4 µM (inactive); in the assay on UACC-257 it was 13.5 µM (inactive); with NCI-H23, 19.9 µM (inactive); in the assay with EKVX, 16.7 µM (inactive); in the assay with MDA-MB-435, 18.8 µM (inactive). In addition, the GI50 in the assay on HCT-116 was 5.78 µM (inactive); in the assay with MCF7, 7.45 µM (inactive); in the assay with RXF 393, 16.4 µM (inactive).

Take `CC(C)(C)OC(=O)NCCC1SC2C=CC1C2` (stereo not drawn): the GI50 in the assay on SW-620, in the assay with BT-549, in the assay with OVCAR-4, with MDA-MB-231, in the assay with Hs-578T and in the assay on SN12C was > 100 µM (inactive) in each case. Also, the GI50 in the assay with MDA-N, with NCI/ADR-RES, in the assay with UACC-257, in the assay with NCI-H23, with EKVX and in the assay with MDA-MB-435 was > 100 µM (inactive) throughout. In addition, the GI50 in the assay on HCT-116, in the assay with RPMI-8226, in the assay on MCF7 and in the assay on RXF 393 was > 100 µM (inactive) throughout.

As for `COc1ccc(/C=C2\CCCc3ccccc3C2=O)cc1`, the GI50 is 0.378 µM (active) with SW-620; 0.143 µM (active) with BT-549; 14.5 µM (inactive) with OVCAR-4; 0.201 µM (active) with MDA-MB-231; 0.233 µM (active) with Hs-578T; 0.117 µM (active) with SN12C. Also, the GI50 in the assay on MDA-N was 0.0132 µM (active); with SR, 0.452 µM (active); with NCI/ADR-RES, 0.0416 µM (active); in the assay with UACC-257, 3.13 µM (inactive); in the assay with NCI-H23 it was 0.122 µM (active); in the assay with EKVX it was 0.39 µM (active). For the same molecule, the GI50 was 0.0154 µM (active) in the assay with MDA-MB-435, 0.244 µM (active) with HCT-116, 0.411 µM (active) in the assay with RPMI-8226 and 1.27 µM (inactive) in the assay on MCF7.

`O=C(c1cccs1)N(C(=O)N1CCN(c2ccccc2)CC1)S(=O)(=O)c1ccccc1`: the GI50 in the assay with SW-620 is 31.5 µM (inactive); in the assay on BT-549 it was 28.2 µM (inactive); with OVCAR-4, 34.7 µM (inactive); with MDA-MB-231, 23.1 µM (inactive); in the assay with Hs-578T it was 23.8 µM (inactive); with SN12C, 17.5 µM (inactive). In addition, the GI50 in the assay on MDA-N is 19.3 µM (inactive); with SR, 21.8 µM (inactive); in the assay on NCI/ADR-RES, 24 µM (inactive); with UACC-257 it was 23.8 µM (inactive); in the assay with NCI-H23 it was 24 µM (inactive); in the assay on EKVX, 16.7 µM (inactive). In addition, the GI50 with MDA-MB-435 is 25.2 µM (inactive); with HCT-116 it was 20.2 µM (inactive); with MCF7 it was 27.4 µM (inactive).

On to `CC(C)=CCC/C(C)=C/CC/C(C)=C/[C@@H]1[C@@H](CO)[C@]1(C)CC/C=C(\C)CCC=C(C)C`, for which the GI50 with SW-620 is 22.6 µM (inactive); with BT-549, > 100 µM (inactive); in the assay with OVCAR-4, > 100 µM (inactive); in the assay with MDA-MB-231, 21.6 µM (inactive); in the assay with Hs-578T it was > 100 µM (inactive); in the assay with SN12C, 41.1 µM (inactive). The GI50 in the assay on SR is 19.6 µM (inactive); with NCI/ADR-RES it was 22.4 µM (inactive); with UACC-257, 74.3 µM (inactive); with NCI-H23, 32 µM (inactive); in the assay on EKVX, 20.2 µM (inactive); with MDA-MB-435, 85.9 µM (inactive). Also, the GI50 is 31.2 µM (inactive) in the assay on HCT-116, 25.2 µM (inactive) in the assay with RPMI-8226 and 23.7 µM (inactive) in the assay on RXF 393.

In the case of `C/C=C1/CN2CCC34c5ccccc5N(C)C23C2CC1C4(C(=O)OC)C(OC(C)=O)O2` (stereo not drawn), the GI50 with SW-620, in the assay with BT-549, with OVCAR-4, in the assay on MDA-MB-231, in the assay on Hs-578T and with SN12C was > 100 µM (inactive) throughout. The GI50 in the assay on MDA-N, with SR, with NCI/ADR-RES, in the assay on UACC-257, with NCI-H23 and in the assay with EKVX was > 100 µM (inactive) each time. In addition, the GI50 in the assay on MDA-MB-435, in the assay on HCT-116, with RPMI-8226 and in the assay on MCF7 was > 100 µM (inactive) throughout.

On to `Nc1cc(CO)cc(Nc2c3ccccc3nc3occc23)c1`, for which the GI50 was 19.4 µM (inactive) in the assay with BT-549; 17.1 µM (inactive) in the assay on OVCAR-4; 31.8 µM (inactive) in the assay with MDA-MB-231; 31 µM (inactive) in the assay with Hs-578T; 39 µM (inactive) in the assay on SN12C; 25.9 µM (inactive) with MDA-N. Besides, the GI50 in the assay with SR is 3.91 µM (inactive); in the assay with NCI/ADR-RES, 22.4 µM (inactive); in the assay on UACC-257, 42.6 µM (inactive); in the assay on NCI-H23, 28.9 µM (inactive); in the assay on EKVX it was 67.5 µM (inactive); in the assay with MDA-MB-435, 10.5 µM (inactive). Further, the figures for the GI50 with HCT-116, in the assay on RPMI-8226 and with MCF7 were 24.8 µM (inactive), 26.5 µM (inactive) and 20 µM (inactive), respectively.

In the case of `CC12c3c4cc(Br)cc3Oc3cc(Br)cc(c31)Oc1cc(Br)cc(c12)O4`, the GI50 with SW-620 was 24.6 µM (inactive); in the assay on BT-549, 21.9 µM (inactive); with OVCAR-4 it was > 100 µM (inactive); with MDA-MB-231, 17.8 µM (inactive); in the assay with Hs-578T it was > 100 µM (inactive); in the assay with SN12C, 31 µM (inactive). Further, the GI50 with MDA-N is 41.1 µM (inactive); in the assay on SR, 15.1 µM (inactive); with NCI/ADR-RES it was 19.8 µM (inactive); in the assay with UACC-257, 36.9 µM (inactive); in the assay on NCI-H23, 57.1 µM (inactive); with EKVX it was 19.7 µM (inactive). Also, the GI50 was 26.2 µM (inactive) with MDA-MB-435, 17.7 µM (inactive) in the assay with HCT-116, 19.4 µM (inactive) in the assay on RPMI-8226 and 43.4 µM (inactive) with MCF7.

Regarding `CCCC#CCOC(=O)c1cc([N+](=O)[O-])cc([N+](=O)[O-])c1`, the GI50 in the assay with SW-620 was > 100 µM (inactive); in the assay on BT-549, > 100 µM (inactive); with MDA-MB-231 it was > 100 µM (inactive); with Hs-578T, > 100 µM (inactive); in the assay on SN12C it was > 100 µM (inactive); in the assay with MDA-N it was 47.3 µM (inactive). Besides, the GI50 is > 100 µM (inactive) in the assay on SR; > 100 µM (inactive) in the assay on NCI/ADR-RES; > 100 µM (inactive) with UACC-257; > 100 µM (inactive) in the assay on NCI-H23; > 100 µM (inactive) in the assay on EKVX; 41.4 µM (inactive) with MDA-MB-435. The GI50 in the assay on HCT-116, in the assay with RPMI-8226 and with MCF7 was > 100 µM (inactive) in each case.

Turning to `CC1(C)CC(=O)C(=CNC(=S)c2ccccc2)C(=O)C1`, the GI50 in the assay on SW-620, with BT-549, in the assay with OVCAR-4, in the assay with MDA-MB-231, in the assay on Hs-578T and with SN12C was > 100 µM (inactive) throughout. Moreover, the GI50 in the assay on MDA-N, in the assay on NCI/ADR-RES, in the assay with UACC-257, with NCI-H23, in the assay on EKVX and with MDA-MB-435 was > 100 µM (inactive) throughout. Besides, the GI50 in the assay on HCT-116 and in the assay with MCF7 was > 100 µM (inactive) in each case.

`COc1ccc(Cc2c(N)[nH]c(=O)[nH]c2=O)cc1`: the GI50 with SW-620, in the assay with BT-549, in the assay on OVCAR-4, in the assay with MDA-MB-231, in the assay with Hs-578T and in the assay on SN12C was > 100 µM (inactive) in each case. In addition, the GI50 with MDA-N, in the assay with NCI/ADR-RES, in the assay on UACC-257, in the assay with NCI-H23, with EKVX and in the assay with MDA-MB-435 was > 100 µM (inactive) throughout. Also, the GI50 in the assay with HCT-116 is > 100 µM (inactive); in the assay with RPMI-8226 it was 22 µM (inactive); in the assay with RXF 393, > 100 µM (inactive).

For the molecule `COc1ccc(COCC[C@H](C)OC2OC(CO[Si](C)(C)C(C)(C)C)C(OC(=O)CCCN=[N+]=[N-])C(OC(=O)CCCN=[N+]=[N-])C2OC(=O)CCCN=[N+]=[N-])cc1` (stereo partly drawn), the GI50 in the assay on SW-620 is > 100 µM (inactive); in the assay on BT-549 it was 22.2 µM (inactive); in the assay on OVCAR-4, 27.9 µM (inactive); in the assay on MDA-MB-231, > 100 µM (inactive); with Hs-578T, > 100 µM (inactive); in the assay on SN12C it was 78.3 µM (inactive). Further, the GI50 in the assay on MDA-N was 44.9 µM (inactive); in the assay on NCI/ADR-RES, 19.1 µM (inactive); with UACC-257, 26.5 µM (inactive); in the assay with NCI-H23, 31.8 µM (inactive); in the assay with EKVX it was 33.2 µM (inactive); in the assay on MDA-MB-435, > 100 µM (inactive). The values for the GI50 in the assay with HCT-116, in the assay with MCF7 and in the assay with RXF 393 were 19.5 µM (inactive), 25.9 µM (inactive) and 98.2 µM (inactive), respectively.
